Data published in ChEMBL document CHEMBL1129619, “New series of potent, orally bioavailable, non-peptidic cyclic sulfones as HIV-1 protease inhibitors” (J Med Chem, 1996).

Columns and labels:
[1] = Cytotoxic Concentration needed to produce 50% reduction in the number of viable MT2 cells assayed by metabolism of a tetrazolium dye.; assay type: cell-based; settings: human
MT2 [2] = test: Concentration needed to inhibit HIV-1 virus replication in MT2 cells by 50% as determined by XTT assay.; assay type: functional, cell-based; settings: Homo sapiens
MT2 [3] = test: Concentration needed to inhibit HIV-1 virus replication in MT2 cells by 90% as determined by XTT assay.; assay type: functional; settings: Homo sapiens
[4] = molecular target: Human immunodeficiency virus type 1 protease (Human immunodeficiency virus 1, UniProt Q72874); test: Concentration needed to inhibit HIV- protease activity by 50%.
[5] = Selectivity ratio between EC50 ancd CC50 values of the compound; assay type: functional
[6] = Selective ratio between EC50 ancd CC50 values calculated; assay type: functional

Row | Compound | CC50 [1] [µM] | EC50 (MT2 [2]) [nM] | EC90 (MT2 [3]) [nM] | IC50 [4] [nM] | SI [5] | SI [6]
1 | O=S1(=O)[C@H](Cc2ccccc2)[C@H](OCc2cncs2)[C@H](O)[C@@H](O)[C@@H](OCc2cncs2)[C@H]1Cc1ccccc1 | 40 | 6.5 | 40 | 0.3 | 6150 | –
2 | Nc1cccc(CO[C@@H]2[C@H](O)[C@@H](O)[C@@H](OCc3cccc(N)c3)[C@@H](Cc3ccccc3)S(=O)(=O)[C@@H]2Cc2ccccc2)c1 | 30 | 9 | – | 1 | – | 3330
3 | O=S1(=O)[C@H](Cc2ccccc2)[C@H](OCc2ccccc2)[C@H](O)[C@@H](O)[C@@H](OCc2ccccc2)[C@H]1Cc1ccccc1 | 6 | 40 | 70 | 0.6 | 150 | –
